Experimental data as given in patent US20050124562A1, “Bis-quinazoline compounds for the treatment of bacterial infections” (priority 2003, published 2005).
≈ marks a conversion by molar mass, not a printed value. Counter-ions that a name gives are not always drawn. Like-named read-outs stand apart in the source and are kept apart here.

Legend:
Assay type in all cases: cell-based
[1] = system: efflux mutants of E. coli; test: Broth microdilution MIC (NCCLS), E. coli efflux mutants; details: Escherichia coli, read-out: MICs
Method: (§1) Representative bis-quinazolines were tested for antibacterial activity using the […] microdilution method to determine their minimum inhibitory concentrations (MICs). All compounds were tested using standard methods in accordance with NCCLS guidelines (National Committee for Clinical Laboratory Standards. 2003. Methods for dilution antimicrobial susceptibility testing for bacteria that grow aerobically. Approved Standard M-7 A-6, NCCLS, Wayne, Pa.). The bacterial strains used in the susceptibility tests were obtained from the American Type Culture Collection (ATCC) and included resistant phenotypes such as oxacillin-resistant S. aureus (ORSA) and vancomycin-resistant enterococci (VRE). The minimum bactericidal concentrations (MBCs) were determined for selected organisms. The effect of protein binding on the antibacterial activity of representative bis-quinazolines were determined by conducting MIC tests in the presence of human serum.

M. catarrhalis = test: Broth microdilution MIC (NCCLS), M. catarrhalis; details: Moraxella catarrhalis, read-out: MIC range
Method: as §1

[2] = system: efflux mutants of P. aeruginosa; test: Broth microdilution MIC (NCCLS), P. aeruginosa efflux mutants; details: for MIC: Pseudomonas aeruginosa, read-out: MICs; for MICs: efflux mutants of P. aeruginosa
Method: as §1

H. influenzae = test: Broth microdilution MIC (NCCLS), H. influenzae; details: Haemophilus influenzae; some strains of H. influenzae
Method: as §1

[3] = system: S. aureus, E. faecalis, S. pyogenes and S. pneumoniae; test: Broth microdilution MIC (NCCLS), gram-positive strains
Summary of the method: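 MICs by broth microdilution per NCCLS M-7 A-6 against ATCC strains, including ORSA and VRE; MBCs determined for selected organisms. Serum effect assessed by repeating MIC tests with human serum present.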

[4] = range against some strains of S. aureus, E. faecalis, S. pyogenes and S. pneumoniae, read-out: MIC

| Molecule | MIC [1] [µg/mL] | MIC (M. catarrhalis; some strains of M. catarrhalis) [µg/mL] | MIC [2] [µg/mL] | MIC (H. influenzae) [µg/mL] | MIC [3, 4] [µg/mL] | MIC (M. catarrhalis) [µg/mL] | MIC [3] [µg/mL] | MICs [2] [µg/mL] |
| --- | --- | --- | --- | --- | --- | --- | --- | --- |
| CCN(CC)CCOc1ccc2nc(Nc3nc(C)c4cc(OC)c(OC)cc4n3)nc(O)c2c1.O=C(O)C(F)(F)F [Example 149, 6-(2-Diethylamino-ethoxy)-2-(6,7-dimethoxy-4-methyl-quinazolin-2-ylamino)-quinazolin-4-ol trifluoroacetate salt] | 16 to 64 | 2 to 64 | 64 | 16 to 32 | 0.06 to 16 |  |  |  |
| COc1cc(OC)c2nc(Nc3nc(O)c4cc(OCCN5CCCC5)ccc4n3)nc(C)c2c1.O=C(O)C(F)(F)F [Example 166, 2-(6,8-Dimethoxy-4-methyl-quinazolin-2-ylamino)-6-(2-pyrrolidin-1-yl-ethoxy)-quinazolin-4-ol trifluoroacetate salt] | 16 to 64 | 2 to 64 | 64 | 16 to 32 | 0.06 to 16 |  |  |  |
| COc1cc2nc(Nc3nc(O)c4cc(OCCN(C)C)ccc4n3)nc(C)c2cc1OC.O=C(O)C(F)(F)F [Example 146, 2-(6,7-Dimethoxy-4-methyl-quinazolin-2-ylamino)-6-(2-dimethylamino-ethoxy)-quinazolin-4-ol trifluoroacetate salt] | 16 to 64 | 2 to 64 | 64 | 16 to 32 | 0.06 to 16 |  |  |  |
| COc1cc2nc(Nc3nc(O)c4cc(OCCNC(CO)C(C)C)ccc4n3)nc(C)c2cc1OC.O=C(O)C(F)(F)F (stereo not drawn) [Example 142, 2-(6,7-Dimethoxy-4-methyl-quinazolin-2-ylamino)-6-[2-(1-hydroxymethyl-2-methyl-propylamino)-ethoxy]-quinazolin-4-ol Trifluoroacetate salt] | 16 to 64 | 2 to 64 | 64 | 16 to 32 | 0.06 to 16 |  |  |  |
| COc1cc2nc(Nc3nc(O)c4cc(OCCCN5CCCC5)ccc4n3)nc(C)c2cc1OC.O=C(O)C(F)(F)F [Example 151, 2-(6,7-Dimethoxy-4-methyl-quinazolin-2-ylamino)-6-(3-pyrrolidin-1-yl-propoxy)-quinazolin-4-ol trifluoroacetate salt] | 16 to 64 | 2 to 64 | 64 | 16 to 32 | 0.06 to 16 |  |  |  |
| COc1cc2nc(Nc3nc(O)c4c(OC)cccc4n3)nc(CF)c2cc1OC.O=C(O)C(F)(F)F [Example 90, 2-(4-Fluoromethyl-6,7-dimethoxy-quinazolin-2-ylamino)-5-methoxy-quinazolin-4-ol trifluoroacetate salt] | 16 to 64 | 2 to 64 | 64 | 16 to 32 | 0.06 to 16 |  |  |  |
| CCN(CC)CCOc1ccc2nc(Nc3nc(O)c4cccc(OC)c4n3)nc(C)c2c1.O=C(O)C(F)(F)F [Example 115, 2-[6-(2-Diethylamino-ethoxy)-4-methyl-quinazolin-2-ylamino]-8-methoxy-quinazolin-4-ol trifluoroacetate salt] | 16 to 64 | 2 to 64 | 64 | 16 to 32 | 0.06 to 16 |  |  |  |
| COc1ccc(OC)c2c(O)nc(Nc3nc(C)c4ccc5c(c4n3)OCCO5)nc12.O=C(O)C(F)(F)F [Example 95, 5,8-Dimethoxy-2-(8-methyl-2,3-dihydro-1,4-dioxa-5,7-diaza-phenanthren-6-ylamino)-quinazolin-4-ol trifluoroacetate salt] | 16 to 64 | 2 to 64 | 64 | 16 to 32 | 0.06 to 16 |  |  |  |
| COc1cc(OC)c2nc(Nc3nc(O)c4cc(OCCNC(C)CO)ccc4n3)nc(C)c2c1.O=C(O)C(F)(F)F (stereo not drawn) [Example 143, 2-(6,8-Dimethoxy-4-methyl-quinazolin-2-ylamino)-6-[2-(2-hydroxy-1-methyl-ethylamino)-ethoxy]-quinazolin-4-ol trifluoroacetate salt] | 16 to 64 | 2 to 64 | 64 | 16 to 32 | 0.06 to 16 |  |  |  |
| COc1cc2nc(Nc3nc(O)c4cccc(OC)c4n3)nc(CF)c2cc1OC.O=C(O)C(F)(F)F [Example 87, 2-(4-Fluoromethyl-6,7-dimethoxy-quinazolin-2-ylamino)-8-methoxy-quinazolin-4-ol trifluoroacetate salt] | 16 to 64 | 2 to 64 | 64 | 16 to 32 | 0.06 to 16 |  |  |  |
| COc1cc2c(C)nc(Nc3nc(O)c4cccc(F)c4n3)nc2cc1O.O=C(O)C(F)(F)F [Example 104, 2-(8-Fluoro-4-hydroxy-quinazolin-2-ylamino)-6-methoxy-4-methyl-quinazolin-7-ol trifluoroacetate salt] | 16 to 64 | 2 to 64 | 64 | 16 to 32 | 0.06 to 16 |  |  |  |
| COc1cc2c(C)nc(Nc3nc(O)c4cccc(OC)c4n3)nc2cc1F.O=C(O)C(F)(F)F [Example 86, 2-(7-Fluoro-6-methoxy-4-methyl-quinazolin-2-ylamino)-8-methoxy-quinazolin-4-ol trifluoroacetate salt] | 16 to 64 | 2 to 64 | 64 | 16 to 32 | 0.06 to 16 |  |  |  |
| COc1ccc2nc(Nc3nc(O)c4cc(OC)c(OC)c(OC)c4n3)nc(C)c2c1.O=C(O)C(F)(F)F [Example 18, 6,7,8-Trimethoxy-2-(6-methoxy-4-methyl-quinazolin-2-ylamino)-quinazolin-4-ol trifluoroacetate salt] | 16 to 64 | 2 to 64 | 64 | 16 to 32 | 0.06 to 16 |  |  |  |
| COCCOc1ccc2nc(Nc3nc(O)c4c(OC)cccc4n3)nc(C)c2c1.O=C(O)C(F)(F)F [Example 88, 5-Methoxy-2-[6-(2-methoxy-ethoxy)-4-methyl-quinazolin-2-ylamino]-quinazolin-4-ol trifluoroacetate salt] | 16 to 64 | 2 to 64 | 64 | 16 to 32 | 0.06 to 16 |  |  |  |
| COc1cc2nc(Nc3nc(O)c4cc(OCCN5CCC(N)C5)ccc4n3)nc(C)c2cc1OC (stereo not drawn) [Example 163, 6-[2-(3-Amino-pyrrolidin-1-yl)-ethoxy]-2-(6,7-dimethoxy-4-methyl-quinazolin-2-ylamino)-quinazolin-4-ol] | 16 to 64 (≈ 32.5 to 130 µM) |  | 64 (≈ 130 µM) | 16 to 32 (≈ 32.5 to 65.1 µM) |  | 2 to 64 (≈ 4.07 to 130 µM) | 0.06 to 16 (≈ 0.122 to 32.5 µM) |  |
| COc1cc2nc(Nc3nc(O)c4cc(OCCN5CCC(O)C5)ccc4n3)nc(C)c2cc1OC.O=C(O)C(F)(F)F (stereo not drawn) [Example 155, 2-(6,7-Dimethoxy-4-methyl-quinazolin-2-ylamino)-6-[2-(3-hydroxy-pyrrolidin-1-yl)-ethoxy]-quinazolin-4-ol trifluoroacetate salt] |  |  |  |  |  |  |  | 64 |
| COc1cc2nc(Nc3nc(O)c4cc([N+](=O)[O-])cc(C)c4n3)nc(C)c2cc1OC.O=C(O)C(F)(F)F [Example 66] |  |  |  |  |  |  |  | 64 |
| COc1cc2nc(Nc3nc(O)c4cc(OCCN5CCCC5CO)ccc4n3)nc(C)c2cc1OC.O=C(O)C(F)(F)F (stereo not drawn) [Example 164, 2-(6,7-Dimethoxy-4-methyl-quinazolin-2-ylamino)-6-[2-(2-hydroxymethyl-pyrrolidin-1-yl)-ethoxy]-quinazolin-4-ol trifluoroacetate salt] | 16 to 64 | 2 to 64 | 64 | 16 to 32 | 0.06 to 16 |  |  |  |
| COc1cc2nc(Nc3nc(O)c4cc(OCCNC(C)CO)ccc4n3)nc(C)c2cc1OC.O=C(O)C(F)(F)F (stereo not drawn) [Example 169, 2-(6,7-Dimethoxy-4-methyl-quinazolin-2-ylamino)-6-[2-(2-hydroxy-1-methyl-ethylamino)-ethoxy]-quinazolin-4-ol trifluoroacetate salt] | 16 to 64 | 2 to 64 | 64 | 16 to 32 | 0.06 to 16 |  |  |  |
| COc1cc2nc(Nc3nc(O)c4cc(OCCN5CCN(C)CC5)ccc4n3)nc(C)c2cc1OC.O=C(O)C(F)(F)F [Example 147, 2-(6,7-Dimethoxy-4-methyl-quinazolin-2-ylamino)-6-[2-(4-methyl-piperazin-1-yl)-ethoxy]-quinazolin-4-ol trifluoroacetate salt] | 16 to 64 | 2 to 64 | 64 | 16 to 32 | 0.06 to 16 |  |  |  |
| COc1cc2nc(Nc3nc(O)c4cc(OCCN5CCC(O)C5)ccc4n3)nc(C)c2cc1OC.O=C(O)C(F)(F)F (stereo not drawn) [Example 156, 2-(6,7-Dimethoxy-4-methyl-quinazolin-2-ylamino)-6-[2-(3-hydroxy-pyrrolidin-1-yl)-ethoxy]-quinazolin-4-ol trifluoroacetate salt] |  |  |  |  |  |  |  | 64 |
| COc1cc2nc(Nc3nc(O)c4cc(OCCNC(CO)CC(C)C)ccc4n3)nc(C)c2cc1OC (stereo not drawn) [Example 162, 2-(6,7-Dimethoxy-4-methyl-quinazolin-2-ylamino)-6-{2-[(1-hydroxymethyl-3-methylbutyl)-amino]-ethoxy}-quinazolin-4-olTrifluoroacetate salt] |  |  |  |  |  |  |  | 64 |
| 2-[4-Hydroxy-6-(2-morpholin-4-yl-ethoxy)-quinazolin-2-ylamino]-6,7-dimethoxy-quinazolin-4-ol trifluoroacetate salt [Example 150] |  |  |  |  |  |  |  | 64 |
| COc1cc(OC)c2nc(Nc3nc(O)c4c(OC)c(OC)ccc4n3)nc(C)c2c1.Cl [Example 135, 2-(6,8-Dimethoxy-4-methyl-quinazolin-2-ylamino)-5,6-dimethoxy-quinazolin-4-ol HCl salt] |  |  |  |  | 0.06 to 16 |  |  |  |
